Reference: paper PMC8958504 (Journal of Medicinal Chemistry, 2022)
Values joined by “and” are separate entries in the source; they are usually repeats but may differ in a detail not shown here. Equal values may be shown once. Read-outs that look alike come from different tables or passages of the source.

How the values were obtained:
hMAO-A = molecular target: T1, hMAO-A (Homo sapiens, UniProt P21397); experiment: biochemical; settings: for IC50: read-out: hMAO-A (IC50), recombinant hMAO-A, p-tyramine substrate
T1 sequence (P21397 1-527): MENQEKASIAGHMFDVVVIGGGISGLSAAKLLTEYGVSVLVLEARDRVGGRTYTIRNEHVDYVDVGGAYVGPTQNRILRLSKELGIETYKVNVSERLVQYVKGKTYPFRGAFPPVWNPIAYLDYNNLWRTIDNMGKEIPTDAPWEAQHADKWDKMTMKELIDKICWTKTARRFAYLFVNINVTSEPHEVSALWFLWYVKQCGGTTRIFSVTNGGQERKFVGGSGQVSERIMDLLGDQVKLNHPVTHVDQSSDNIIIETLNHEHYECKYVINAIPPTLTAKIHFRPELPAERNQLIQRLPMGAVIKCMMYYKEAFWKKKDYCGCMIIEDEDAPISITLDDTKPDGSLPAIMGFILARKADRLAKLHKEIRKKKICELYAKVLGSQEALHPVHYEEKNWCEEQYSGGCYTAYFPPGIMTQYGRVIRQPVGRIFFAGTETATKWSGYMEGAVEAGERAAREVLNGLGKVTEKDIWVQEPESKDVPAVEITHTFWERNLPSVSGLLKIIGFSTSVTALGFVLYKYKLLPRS
Procedure: (§1) The hMAO-A/B inhibition of all compounds was determined using the Amplex Red MAO assay kit.
(§2) Assays were performed following the general procedure previously described.[98] […] The specific fluorescence emission was calculated after subtracting the background activity, which was determined from wells containing all components except the hMAO isoforms, which were replaced with PBS.

hMAO-B = molecular target: T2, hMAO-B (Homo sapiens, UniProt P27338); experiment: biochemical; settings: for IC50: read-out: hMAO-B (IC50), recombinant hMAO-B, p-tyramine substrate; for inhibition at 50 µM: read-out: hMAO-B percentage of inhibition (in brackets)
T2 sequence (P27338 1-520): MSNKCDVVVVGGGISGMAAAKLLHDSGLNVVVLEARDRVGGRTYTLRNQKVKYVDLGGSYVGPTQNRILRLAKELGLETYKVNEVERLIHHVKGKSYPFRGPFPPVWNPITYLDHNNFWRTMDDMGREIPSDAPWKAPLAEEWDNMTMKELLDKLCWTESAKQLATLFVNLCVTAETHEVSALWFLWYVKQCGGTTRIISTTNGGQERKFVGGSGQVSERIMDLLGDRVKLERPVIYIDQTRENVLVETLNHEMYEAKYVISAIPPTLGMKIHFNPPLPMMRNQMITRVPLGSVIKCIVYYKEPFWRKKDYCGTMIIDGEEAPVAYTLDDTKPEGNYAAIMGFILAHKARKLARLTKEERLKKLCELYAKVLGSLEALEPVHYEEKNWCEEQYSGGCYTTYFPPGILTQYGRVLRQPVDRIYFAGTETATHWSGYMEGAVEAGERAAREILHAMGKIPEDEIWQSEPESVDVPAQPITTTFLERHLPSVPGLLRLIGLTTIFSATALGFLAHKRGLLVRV
Procedure: as §1, §2

[1] = Oxygen radical absorbance capacity (ORAC-FL) assay; settings: trolox = 1.0
Procedure: 2,2′-Azobis-(amidinopropane) dihydrochloride (AAPH), trolox, and fluorescein (FL) were purchased from Sigma-Aldrich. The reaction was carried out in a 75 mM phosphate buffer (pH 7.4), and the final reaction mixture was 200 μL. […] Antioxidant curves (fluorescence vs time) were first normalized to the curve of the blank corresponding to the same assay, and the area under the curve (AUC) of fluorescence decay was calculated. The net AUC corresponding to a sample was calculated by subtracting the AUC corresponding to the blank. Regression equations between the net AUC and antioxidant concentration were calculated for all the samples.

in vitro = in vitro ADME; settings: for Papp at 240 min, 100 μg mL^–1: PAMPA; for PAMPA-BBB (Pe, 10^–6 cm s^–1): porcine brain lipid
[2] = test system: NRF2-ARE signaling pathway; experiment: cells; format: cell-based; settings: for EC (2-fold induction): Arec32, 24 h, read-out: NRF2 (CD, μM), concentration required to double luciferase activity, AREc32 cells, 24 h; for NRF2 (CD, μM): concentration required to double luciferase activity, AREc32 cells, 24 h
Procedure: AREc32 cells were plated in 96-well white plates (2 × 10^4 cells/well). […]. The AREc32 cells constitutively express the plasmid pGL-8xARE that implements eight copies of the EpRE sequences, followed by the luciferase reporter gene. Therefore, NRF2 induction is related to the activation of EpRE sequences, expressing luciferase at the same extent as EpRE sequences are activated. The Luciferase Assay System (Promega E1500) was used according to the provider’s protocol, and luminescence was quantified in an Orion II microplate luminometer (Berthold, Germany). Fold induction of luciferase activity was normalized to basal conditions. Data are expressed as CD values, expressing the concentration required to double the luciferase activity. CD values were calculated from dose–response curves generated from the fold induction of control conditions versus inducer concentration and fitted by nonlinear regression and data interpolated to twofold induction concentration.[68]

QR2 = molecular target: T3, QR2 (Mesocricetus auratus, UniProt A0ABM2YAB8); experiment: biochemical
T3 sequence (A0ABM2YAB8 1-231): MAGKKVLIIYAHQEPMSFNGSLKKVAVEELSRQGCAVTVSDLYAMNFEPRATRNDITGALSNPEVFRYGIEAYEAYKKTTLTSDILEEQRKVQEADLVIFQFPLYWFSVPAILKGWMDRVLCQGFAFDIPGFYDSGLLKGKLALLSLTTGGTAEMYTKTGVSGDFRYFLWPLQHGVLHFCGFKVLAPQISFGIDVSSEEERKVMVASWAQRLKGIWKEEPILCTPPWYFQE
Procedure: The QR2 experiments were performed in membrane homogenates of hamster brains (https://www.eurofins.fr, catalog ref. 0088). […] First, radioligand displacement was measured at a fixed compound concentration (10 μM) in each receptor.

[3] = pH 7.4, class from PAMPA-BBB Pe, read-out: CNS-permeability prediction
[4] = PBS/EtOH (70:30), 240 min, 25 °C

Row | Structure (SMILES) | IC50 (hMAO-A) | IC50 (hMAO-B) | ORAC (trolox equiv) [1] | Papp at 240 min, 100 μg mL^–1 (in vitro; [3]) | PAMPA-BBB (Pe, 10^–6 cm s^–1) (in vitro; [4]) | EC (2-fold induction) [2] | NRF2 (CD, μM) [2] | inhibition at 50 µM (hMAO-B) | IC50 (QR2) | inhibition at 50 µM (hMAO-A; read-out: hMAO-A percentage of inhibition (in brackets)) | Papp at 240 min, 100 μg mL^–1 (in vitro; pH 7.4, porcine brain lipid, PBS/EtOH (70:30), 240 min, 25 °C, read-out: PAMPA-BBB) | Papp at 240 min, 100 μg mL^–1 (in vitro; pH 7.4, PAMPA standards, mean ± SD of three experiments, read-out: Permeability Pe, Exp)
1 | O=c1[nH]nc(/C=C/c2ccc3c(c2)OCO3)o1 [2i, 5-[(E)-2-(2H-1,3-Benzodioxol-5-yl)ethenyl]-1,3,4-oxadiazol-2(3H)-one] | > 50 µM | 27.6 ± 0.9 µM | <0.1 trolox equiv | 2 to 4 ×10⁻⁶ cm/s | 3.8 ± 0.2 10^–6 cm s^–1 | – | – | – | – | – | – | –
2 | O=c1[nH]nc(/C=C/c2cc(O)cc(O)c2)o1 [3p, 5-[(E)-2-(3,5-Dihydroxyphenyl)ethenyl]-1,3,4-oxadiazol-2(3H)-one] | > 50 µM | > 50 µM | 1.9 ± 0.1 trolox equiv | < 2 ×10⁻⁶ cm/s | ≤ 0.1 10^–6 cm s^–1 | > 60 µM | – | – | – | – | – | –
3 | C[S+]([O-])CCCCN=C=S (centres unmarked) [sulforaphane, reference compound] | – | – | – | – | – | 1.24 µM | 1.24 ± 0.28 µM | – | – | – | – | –
4 | N#Cc1cccc(/C=C/c2n[nH]c(=O)o2)c1 [2b, 3-[(E)-2-(5-Oxo-4,5-dihydro-1,3,4-oxadiazol-2-yl)ethenyl]benzonitrile] | > 50 µM | > 50 µM | <0.1 trolox equiv | > 4 ×10⁻⁶ cm/s | 4.5 ± 0.3 10^–6 cm s^–1 | 13.7 µM | 13.7 ± 2.2 µM | 38% | – | – | – | –
5 | C#CCNC(=O)/C=C/c1ccc(O)cc1 [6m, (2E)-3-(4-Hydroxyphenyl)-N-(prop-2-yn-1-yl)prop-2-enamide] | > 50 µM | 31.1 ± 1.57 µM | 3.0 ± 0.2 trolox equiv | – | – | – | – | – | – | – | – | –
6 | COc1ccc(OC)c(/C=C/c2n[nH]c(=O)o2)c1 [2g, 5-[(E)-2-(2,5-Dimethoxyphenyl)ethenyl]-1,3,4-oxadiazol-2(3H)-one] | > 50 µM | > 50 µM | <0.1 trolox equiv | 2 to 4 ×10⁻⁶ cm/s | 3.0 ± 0.2 10^–6 cm s^–1 | – | – | – | – | – | – | –
7 | C#CCn1nc(/C=C/c2cccc(O)c2)oc1=O [5l, 5-[(E)-2-(3-Hydroxyphenyl)ethenyl]-3-(prop-2-yn-1-yl)-1,3,4-oxadiazol-2(3H)-one] | > 50 µM | 3.53 ± 0.15 µM | 2.7 ± 0.2 trolox equiv | > 4 ×10⁻⁶ cm/s | 4.7 10^–6 cm s^–1 and 4.7 ± 0.2 10^–6 cm s^–1 | – | 8.05 ± 1.41 µM | – | 2.5 ± 0.12 µM | – | – | –
8 | C#CCNC(=O)/C=C/c1ccc(OC)cc1 [6e, (2E)-3-(4-Methoxyphenyl)-N-(prop-2-yn-1-yl)prop-2-enamide] | > 50 µM | > 50 µM | <0.1 trolox equiv | – | – | – | – | – | – | – | – | –
9 | COc1cc(/C=C/c2n[nH]c(=O)o2)cc(OC)c1OC [2k, 5-[(E)-2-(3,4,5-Trimethoxyphenyl)ethenyl]-1,3,4-oxadiazol-2(3H)-one] | > 50 µM | > 50 µM | <0.1 trolox equiv | < 2 ×10⁻⁶ cm/s | ≤ 0.5 10^–6 cm s^–1 | – | – | – | – | – | – | –
10 | COc1ccc(/C=C/c2n[nH]c(=O)o2)c(OC)c1 [2f, 5-[(E)-2-(2,4-Dimethoxyphenyl)ethenyl]-1,3,4-oxadiazol-2(3H)-one] | > 50 µM | > 50 µM | 0.6 ± 0.08 trolox equiv | 2 to 4 ×10⁻⁶ cm/s | 3.6 ± 0.2 10^–6 cm s^–1 | – | – | – | – | – | – | –
11 | O=c1[nH]nc(/C=C/c2ccc(O)c(O)c2)o1 [3o, 5-[(E)-2-(3,4-Dihydroxyphenyl)ethenyl]-1,3,4-oxadiazol-2(3H)-one] | 3.4 ± 0.2 µM | 5.8 ± 0.4 µM | 1.7 ± 0.1 trolox equiv | < 2 ×10⁻⁶ cm/s | ≤ 0.2 10^–6 cm s^–1 | – | 21.3 ± 1.6 µM | – | – | – | – | –
12 | C#CCNC(=O)/C=C/c1ccc(O)c(OC)c1 [6n, (2E)-3-(4-Hydroxy-3-methoxyphenyl)-N-(prop-2-yn-1-yl)prop-2-enamide] | > 50 µM | > 50 µM | 0.5 ± 0.03 trolox equiv | < 2 ×10⁻⁶ cm/s | ≤ 0.5 10^–6 cm s^–1 | > 60 µM | >60 µM | 33% | – | 33% | < 2 ×10⁻⁶ cm/s | –
13 | C[C@]12CCC(=O)C=C1CC[C@@H]1[C@@H]2[C@@H](O)C[C@]2(C=O)[C@@H](C(=O)CO)CC[C@@H]12 [Aldosterone, reference compound] | – | – | – | – | – | – | – | – | – | – | – | 3.1 ± 0.2 ×10⁻⁶ cm/s
14 | COc1ccc2[nH]cc(CCNC(C)=O)c2c1 [melatonin, reference compound] | – | – | – | – | – | – | – | – | 0.077 ± 0.001 µM | – | – | –
15 | C#CCNC(=O)/C=C/c1cccc(O)c1 [6l, (2E)-3-(3-Hydroxyphenyl)-N-(prop-2-yn-1-yl)prop-2-enamide] | > 50 µM | > 50 µM | 3.0 ± 0.3 trolox equiv | – | – | – | – | – | – | – | – | –
16 | C#CCNC(=O)/C=C/c1cccc(C#N)c1 [6b, (2E)-3-(3-Cyanophenyl)-N-(prop-2-yn-1-yl)prop-2-enamide] | > 50 µM | > 50 µM | <0.1 trolox equiv | – | – | > 60 µM | – | – | – | – | – | –
17 | COc1ccc(/C=C/c2n[nH]c(=O)o2)cc1OC [2h, 5-[(E)-2-(3,4-Dimethoxyphenyl)ethenyl]-1,3,4-oxadiazol-2(3H)-one] | > 50 µM | > 50 µM | <0.1 trolox equiv | 2 to 4 ×10⁻⁶ cm/s | 2.4 ± 0.3 10^–6 cm s^–1 | > 60 µM | – | – | – | – | – | –
18 | COc1cc(/C=C/c2n[nH]c(=O)o2)cc(OC)c1 [2j, 5-[(E)-2-(3,5-Dimethoxyphenyl)ethenyl]-1,3,4-oxadiazol-2(3H)-one] | > 50 µM | > 50 µM | <0.1 trolox equiv | 2 to 4 ×10⁻⁶ cm/s | 2.1 ± 0.2 10^–6 cm s^–1 | – | – | – | 0.51 ± 0.05 µM | – | – | –
